Experimental data taken from patent publication US10633379B2, “Bromodomain inhibitors” (AbbVie Inc., priority 2016, dated 2020).

Key:
[1] = target: BRD4 (BDI_K57-E168) (Homo sapiens (Human), UniProt O60885); assay: TR-FRET bromodomain binding assay, BRD4 BDI; details: mean Ki, calculated from IC50, probe Kd and probe concentration
Procedure: (§1) A time-resolved fluorescence resonance energy transfer (TR-FRET) assay was used to determine the affinities of compounds of the Examples listed in Table 1 for each bromodomain of BRD4. His-tagged first (BDI: amino acids K57-E168) and second (BDII: amino acids E352-M457) bromodomains of BRD4 were expressed and purified. An Alexa647-labeled BET-inhibitor was used as the fluorescent probe in the assay.
(§2) Compound dilution series were prepared in DMSO via an approximately 3-fold serial dilution. Compound dilutions were added directly into white, low-volume assay plates (Perkin Elmer Proxiplate 384 Plus#6008280) using a Labcyte Echo in conjunction with Labcyte Access and Thermo Multidrop CombinL robotics. Compounds were then suspended in eight microliters (μL) of assay buffer (20 mM Sodium Phosphate, pH 6.0, 50 mM NaCl, 1 mM Ethylenediaminetetraacetic acid disodium salt dihydrate, 0.01% Triton X-100, 1 mM DL-Dithiothreitol) containing His-tagged bromodomain, Europium-conjugated anti-His antibody (Invitrogen PV5596) and Alexa-647-conjugated probe.
(§3) The final concentration of 1× assay mixture contained 2% DMSO, 12 nM His tagged BRD4 (BDI_K57-E168) and 100 nM probe or 4 nM His tagged BRD4 (BDII_E352-M457) and 30 nM probe, and 1 nM Europium-conjugated anti-His-tag antibody, and compound concentrations in the range of: 49.02 μM-0.61 nM or 0.98 μM-0.15 nM.
(§4) After a one-hour equilibration at room temperature, TR-FRET ratios were determined using an Envision multilabel plate reader (Ex 340, Em 495/520).
(§5) TR-FRET data were normalized to the means of 24 no-compound controls (“high”) and 8 controls containing 1 μM un-labeled probe (“low”). Percent inhibition was plotted as a function of compound concentration and the data were fit with the 4 parameter logistic equation to obtain IC50s. Inhibition constants (Ki) were calculated from the IC50s, probe Kd and probe concentration.

[2] = target: BRD4 (BDII_E352-M457) (Homo sapiens (Human), UniProt O60885); assay: TR-FRET bromodomain binding assay, BRD4 BDII; details: mean Ki, calculated from IC50, probe Kd and probe concentration
Procedure: as §1, §2, §3, §4, §5

Row | Structure (SMILES) | Ki [1] | Ki [2]
1 | CCNC(=O)c1cc2c(-c3cc(C(C)(O)C(C)CC)cnc3Oc3c(C)cccc3C)cn(C)c(=O)c2[nH]1 (stereo not drawn) [Example 20, 4-[2-(2,6-dimethylphenoxy)-5-(2-hydroxy-3-methylpentan-2-yl)pyridin-3-yl]-N-ethyl-6-methyl-7-oxo-6,7-dihydro-1H-pyrrolo[2,3-c]pyridine-2-carboxamide] | 0.363 µM | 0.0031 µM
2 | CCNC(=O)c1cc2c(-c3cc(C(C)(O)CCc4ccccc4)cnc3Oc3c(C)cccc3C)cn(C)c(=O)c2[nH]1 (stereo not drawn) [Example 21, 4-[2-(2,6-dimethylphenoxy)-5-(2-hydroxy-4-phenylbutan-2-yl)pyridin-3-yl]-N-ethyl-6-methyl-7-oxo-6,7-dihydro-1H-pyrrolo[2,3-c]pyridine-2-carboxamide] | 0.521 µM | 0.0015 µM
3 | CCNC(=O)c1cc2c(-c3cc(C(C)(O)Cc4ccc(F)cc4)cnc3Oc3c(C)cccc3C)cn(C)c(=O)c2[nH]1 (stereo not drawn) [Example 22, 4-{2-(2,6-dimethylphenoxy)-5-[1-(4-fluorophenyl)-2-hydroxypropan-2-yl]pyridin-3-yl}-N-ethyl-6-methyl-7-oxo-6,7-dihydro-1H-pyrrolo[2,3-c]pyridine-2-carboxamide] | 2.5 µM | 0.0105 µM
4 | CCNC(=O)c1cc2c(-c3cc(C(O)(c4ccc(F)cc4)C4CC4)cnc3Oc3c(C)cccc3C)cn(C)c(=O)c2[nH]1 (stereo not drawn) [Example 23, 4-{5-[cyclopropyl (4-fluorophenyl)hydroxymethyl]-2-(2,6-dimethylphenoxy)pyridin-3-yl}-N-ethyl-6-methyl-7-oxo-6,7-dihydro-1H-pyrrolo[2,3-c]pyridine-2-carboxamide] | 0.701 µM | 0.0032 µM
5 | CCNC(=O)c1cc2c(-c3cc(C(O)(C4CCCC4)C4CC4)cnc3Oc3c(C)cccc3C)cn(C)c(=O)c2[nH]1 (stereo not drawn) [Example 24, 4-{5-[cyclopentyl(cyclopropyl)hydroxymethyl]-2-(2,6-dimethylphenoxy)pyridin-3-yl}-N-ethyl-6-methyl-7-oxo-6,7-dihydro-1H-pyrrolo[2,3-c]pyridine-2-carboxamide] | 0.079 µM | 0.0017 µM
6 | CCNC(=O)c1cc2c(-c3cc(C(O)(C4CC4)C4CC4)cnc3Oc3c(C)cccc3C)cn(C)c(=O)c2[nH]1 [Example 25, 4-{5-[dicyclopropyl(hydroxy)methyl]-2-(2,6-dimethylphenoxy)pyridin-3-yl}-N-ethyl-6-methyl-7-oxo-6,7-dihydro-1H-pyrrolo[2,3-c]pyridine-2-carboxamide] | 0.171 µM | 0.003 µM
7 | CCNC(=O)c1cc2c(-c3cc(C(O)(C(C)C)C4CC4)cnc3Oc3c(C)cccc3C)cn(C)c(=O)c2[nH]1 (stereo not drawn) [Example 26, 4-[5-(1-cyclopropyl-1-hydroxy-2-methylpropyl)-2-(2,6-dimethylphenoxy)pyridin-3-yl]-N-ethyl-6-methyl-7-oxo-6,7-dihydro-1H-pyrrolo[2,3-c]pyridine-2-carboxamide] | 0.015 µM | 0.0015 µM
8 | CCNC(=O)c1cc2c(-c3cc(C(O)(C(C)CC)C4CC4)cnc3Oc3c(C)cccc3C)cn(C)c(=O)c2[nH]1 (stereo not drawn) [Example 27, 4-[5-(1-cyclopropyl-1-hydroxy-2-methylbutyl)-2-(2,6-dimethylphenoxy)pyridin-3-yl]-N-ethyl-6-methyl-7-oxo-6,7-dihydro-1H-pyrrolo[2,3-c]pyridine-2-carboxamide] | 0.044 µM | 0.0018 µM
9 | CCNC(=O)c1cc2c(-c3cc(C(C)(C)O)ccc3Oc3c(C)cccc3C(F)(F)F)cn(C)c(=O)c2[nH]1 [Example 28, N-ethyl-4-{5-(2-hydroxypropan-2-yl)-2-[2-methyl-6-(trifluoromethyl)phenoxy]phenyl}-6-methyl-7-oxo-6,7-dihydro-1H-pyrrolo[2,3-c]pyridine-2-carboxamide] | 1.18 µM | 0.0054 µM
10 | CCNC(=O)c1cc2c(-c3cc(C(C)(C)O)cnc3Oc3c(C)cccc3Cl)cn(C)c(=O)c2[nH]1 [Example 29, 4-[2-(2-chloro-6-methylphenoxy)-5-(2-hydroxypropan-2-yl)pyridin-3-yl]-N-ethyl-6-methyl-7-oxo-6,7-dihydro-1H-pyrrolo[2,3-c]pyridine-2-carboxamide] | 0.594 µM | 0.0013 µM
11 | CCNC(=O)c1cc2c(-c3cc(C(C)(C)O)ccc3Oc3c(C)cccc3Cl)cn(C)c(=O)c2[nH]1 [Example 30, 4-[2-(2-chloro-6-methylphenoxy)-5-(2-hydroxypropan-2-yl)phenyl]-N-ethyl-6-methyl-7-oxo-6,7-dihydro-1H-pyrrolo[2,3-c]pyridine-2-carboxamide] | 0.279 µM | 0.0019 µM
12 | Cc1cccc(Cl)c1Oc1ccc(C(C)(C)O)cc1-c1cn(C)c(=O)c2[nH]c(C(=O)NC(C)(C)C)cc12 [Example 31, N-tert-butyl-4-[2-(2-chloro-6-methylphenoxy)-5-(2-hydroxypropan-2-yl)phenyl]-6-methyl-7-oxo-6,7-dihydro-1H-pyrrolo[2,3-c]pyridine-2-carboxamide] | 0.26 µM | 0.0033 µM
13 | Cn1cc(-c2cc(C(C)(C)O)ccc2-c2ccc(F)cc2F)c2cc(C(=O)NC(C)(C)C)[nH]c2c1=O [Example 33, N-tert-butyl-4-[2′,4′-difluoro-4-(2-hydroxypropan-2-yl)[1,1′-biphenyl]-2-yl]-6-methyl-7-oxo-6,7-dihydro-1H-pyrrolo[2,3-c]pyridine-2-carboxamide] | 0.921 µM | 0.0064 µM
14 | Cc1cccc(C)c1Oc1ncc(C(C)(C)O)cc1-c1cn(C)c(=O)c2[nH]c(C(=O)NC3(C)CC3(F)F)cc12 (stereo not drawn) [Example 34, N-(2,2-difluoro-1-methylcyclopropyl)-4-[2-(2,6-dimethylphenoxy)-5-(2-hydroxypropan-2-yl)pyridin-3-yl]-6-methyl-7-oxo-6,7-dihydro-1H-pyrrolo[2,3-c]pyridine-2-carboxamide] | 0.729 µM | 0.0051 µM
15 | Cc1cc(F)cc(C)c1Oc1ccc(C(C)(C)O)cc1-c1cn(C)c(=O)c2[nH]c(C(=O)NC(C)(C)C)cc12 [Example 36, N-tert-butyl-4-[2-(4-fluoro-2,6-dimethylphenoxy)-5-(2-hydroxypropan-2-yl)phenyl]-6-methyl-7-oxo-6,7-dihydro-1H-pyrrolo[2,3-c]pyridine-2-carboxamide] | 0.579 µM | 0.0034 µM
16 | Cc1cccc(Cl)c1Oc1ncc(C(C)(C)O)cc1-c1cn(C)c(=O)c2[nH]c(C(=O)NC(C)(C)C)cc12 [Example 37, N-tert-butyl-4-[2-(2-chloro-6-methylphenoxy)-5-(2-hydroxypropan-2-yl)pyridin-3-yl]-6-methyl-7-oxo-6,7-dihydro-1H-pyrrolo[2,3-c]pyridine-2-carboxamide] | 0.195 µM | 0.0037 µM
17 | Cc1cccc(Cl)c1Oc1ncc(C(C)(C)O)cc1-c1cn(C)c(=O)c2[nH]c(C(=O)NC(C)(C)C(F)(F)F)cc12 [Example 38, 4-[2-(2-chloro-6-methylphenoxy)-5-(2-hydroxypropan-2-yl)pyridin-3-yl]-6-methyl-7-oxo-N-(1,1,1-trifluoro-2-methylpropan-2-yl)-6,7-dihydro-1H-pyrrolo[2,3-c]pyridine-2-carboxamide] | 0.241 µM | 0.0057 µM
18 | Cc1cccc(Cl)c1Oc1ncc(C(C)(C)O)cc1-c1cn(C)c(=O)c2[nH]c(C(=O)NC3(C)CC3(F)F)cc12 (stereo not drawn) [Example 39, 4-[2-(2-chloro-6-methylphenoxy)-5-(2-hydroxypropan-2-yl)pyridin-3-yl]-N-(2,2-difluoro-1-methylcyclopropyl)-6-methyl-7-oxo-6,7-dihydro-1H-pyrrolo[2,3-c]pyridine-2-carboxamide] | 0.64 µM | 0.0113 µM
19 | CCNC(=O)c1cc2c(-c3cc(C(C)(C)O)ccc3Oc3c(C)cc(SC)cc3C)cn(C)c(=O)c2[nH]1 [Example 40, 4-{2-[2,6-dimethyl-4-(methylsulfanyl)phenoxy]-5-(2-hydroxypropan-2-yl)phenyl}-N-ethyl-6-methyl-7-oxo-6,7-dihydro-1H-pyrrolo[2,3-c]pyridine-2-carboxamide] | 0.773 µM | 0.0021 µM
20 | Cc1cccc(Cl)c1Oc1ccc(C(C)(C)O)cc1-c1cn(C)c(=O)c2[nH]c(C(=O)NC(C)(C)C(F)(F)F)cc12 [Example 41, 4-[2-(2-chloro-6-methylphenoxy)-5-(2-hydroxypropan-2-yl)phenyl]-6-methyl-7-oxo-N-(1,1,1-trifluoro-2-methylpropan-2-yl)-6,7-dihydro-1H-pyrrolo[2,3-c]pyridine-2-carboxamide] | 0.759 µM | 0.0048 µM
21 | Cc1cccc(Cl)c1Oc1ccc(C(C)(C)O)cc1-c1cn(C)c(=O)c2[nH]c(C(=O)NC3(C)CC3(F)F)cc12 (stereo not drawn) [Example 42, 4-[2-(2-chloro-6-methylphenoxy)-5-(2-hydroxypropan-2-yl)phenyl]-N-(2,2-difluoro-1-methylcyclopropyl)-6-methyl-7-oxo-6,7-dihydro-1H-pyrrolo[2,3-c]pyridine-2-carboxamide] | 0.704 µM | 0.0057 µM
